Each block holds one compound with its values, some of them ahead of it. No end group written: not given here.
Experiments:
Format in all cases: cell-based
[1] = system: human bronchi; assay: Contraction of human isolated bronchi by tachykinin peptides (organ bath, isometric tension); details: phosphoramidon 10^-6 M
Source text: (§1) Human bronchial tissues were removed from 47 patients undergoing surgical resection at Foch Hospital (Suresnes, France) or Val d'or Clinic (Saint Cloud, France) for lung cancer (31 men and 16 women; age = 64 ± 9 years). Just after resection, segments of human bronchi with an inner diameter (ID) of 1 to 3 mm were taken as far as possible from the malignant lesion. Male Hartley guinea pigs (Charles River, L'Arbresle, France) weighing 300 to 350 g were sacrificed by cervical dislocation, and tracheas and proximal bronchi were removed. After the removal of adhering lung parenchyma and connective tissues, rings from human bronchi (5-7 mm long, […]) and guinea pig trachea (3 mm long, 3 mm ID) or proximal airways (3 mm long, 1 mm ID) were prepared. 8 to 24 segments of human bronchi were obtained from each patient, whereas 8 trachea segments and 2 to 3 main bronchi segments were obtained from each guinea pig. For RT-PCR analysis, human bronchi were isolated within 1 hour after resection, immediately disrupted and homogenized in TRIzol reagent (Invitrogen) with a Potter Elvehjem homogenizer, and homogenates were kept frozen at -80°C until mRNA extraction. Experiments with human lung tissues were approved by the Regional Ethics Committee for Biomedical Research and animals were used as recommended by animal care guidelines.
(§2) Human bronchial rings and guinea pig tracheal and bronchial rings were suspended on hooks in 5 mL organ bath containing a modified Krebs-Henseleit solution (NaCl 119, KCl 4.7, CaCl2 2.5, KH2PO4 1.2, NaHCO3 25 and glucose 11.7 mM), maintained at 37°C and oxygenated with 95% O2 and 5% CO2. An initial tension of 2 g was applied to tissues, according to previously described protocols. Changes of tension were measured isometrically with Gould strain gauges (UF1; Piodem, Canterburry, Kent, UK); and were recorded and post-processed with IOX and Datanalyst softwares (Emka Technologies France, Paris). During the initial stabilization period (30 min), tissues were washed every 10 minutes with Krebs-Henseleit solution. Phosphoramidon was used to inhibit enzymatic degradation of tachykinins by NEP [21, 40]. Phosphoramidon (10^-6 M) was added in organ bath with or without NK1-, NK2- or NK3-receptor antagonists (SR 140333, SR 48968 and SR 142801, 10^-7 M) after the first stabilization period. Antagonist concentrations were chosen based on their reported affinities for human tachykinin receptors and on their ability to antagonize HK-1-induced responses at similar concentrations in other models. Tissues were then equilibrated 1 hour and concentration-response curves to tachykinins and related peptides were established by applying cumulative concentrations of peptides at 5 to 10 min intervals in semi-logarithmic increments, or by applying a single concentration of peptide. Only one concentration-response curve to tachykinins was recorded in each strip, and each experiment was performed in duplicate. Maximal response was determined by a final addition of acetylcholine hydrochloride (ACh, 3 mM). Contractile responses to tachykinins and related compounds were expressed as percentage of that induced by ACh. The pD2 (defined as the negative log of the molar drug concentration that caused 50% of maximal effect) were calculated from the log concentration-effect curves. When the pD2 value was not assessable (maximal effect (Emax) not reached), it was replaced by the -log EC20 (defined as the negative log of the drug concentration that caused 20% of maximal contraction with ACh). All values in the text and in the figures are expressed as arithmetic mean ± standard error of the mean (s.e.m) of duplicate experiments on tissues from the given (n) number of individuals or animals.

[2] = system: guinea pig main bronchi; assay: Contraction of guinea pig main bronchi by tachykinin peptides (organ bath); details: cumulative additions; phosphoramidon 10^-6 M; n = 6-7
Source text: (§3) Human bronchial tissues were removed from 47 patients undergoing surgical resection at Foch Hospital (Suresnes, France) or Val d'or Clinic (Saint Cloud, France) for lung cancer (31 men and 16 women; age = 64 ± 9 years). Just after resection, segments of human bronchi with an inner diameter (ID) of 1 to 3 mm were taken as far as possible from the malignant lesion. Male Hartley guinea pigs (Charles River, L'Arbresle, France) weighing 300 to 350 g were sacrificed by cervical dislocation, and tracheas and proximal bronchi were removed. […]
(§4) Human bronchial rings and guinea pig tracheal and bronchial rings were suspended on hooks in 5 mL organ bath containing a modified Krebs-Henseleit solution (NaCl 119, KCl 4.7, CaCl2 2.5, KH2PO4 1.2, NaHCO3 25 and glucose 11.7 mM), maintained at 37°C and oxygenated with 95% O2 and 5% CO2. […] Changes of tension were measured isometrically with Gould strain gauges (UF1; Piodem, Canterburry, Kent, UK); and were recorded and post-processed with IOX and Datanalyst softwares (Emka Technologies France, Paris). […] Only one concentration-response curve to tachykinins was recorded in each strip, and each experiment was performed in duplicate. Maximal response was determined by a final addition of acetylcholine hydrochloride (ACh, 3 mM). Contractile responses to tachykinins and related compounds were expressed as percentage of that induced by ACh. […]

[3] = system: human bronchi; assay: Cross-desensitization of NK1 receptors after consecutive applications of hHK-1 and [Sar^9,Met(O2)^11] SP on human bronchi; details: phosphoramidon 10^-6 M, n = 5
Protocol: as §2

[4] = system: guinea-pig trachea; assay: Contraction of guinea pig trachea by tachykinin peptides (organ bath); details: cumulative additions, phosphoramidon 10^-6 M; for Emax (% of Ach 3 mM) / pD2: guinea-pig trachea, mean ± s.e.m. for n determinations (n = 6-12); for contractile effect on guinea-pig trachea: EKA/B 10^-8 M-10^-6 M
Source text: as §1, §2

[5] = system: guinea pig main bronchi; assay: Effect of NK1 or NK2 receptor antagonists on hHK-1-induced contraction of guinea pig main bronchi; details: antagonist 10^-7 M; cumulative additions of hHK-1; phosphoramidon 10^-6 M; n = 5-7
Source text: as §3, §4

[6] = system: guinea-pig trachea; assay: Effect of NK1 or NK2 receptor antagonists on hHK-1-induced contraction of guinea pig trachea; details: for effect of antagonist on contractions induced by hHK-1, guinea-pig trachea: antagonist 10^-7 M, cumulative additions of hHK-1, phosphoramidon 10^-6 M
Source text: as §3, with “removed. After the removal of adhering lung parenchyma and connective tissues, rings from human bronchi (5-7 mm long, […]) and guinea pig trachea (3 mm long, 3 mm ID) or proximal airways (3 mm long, 1 mm ID) were prepared. 8 to 24 segments of human bronchi were obtained from each patient, whereas 8 trachea segments and 2 to 3 main bronchi segments were obtained from each guinea pig.” for “removed.”
as §4, with “ACh. The pD2 (defined as the negative log of the molar drug concentration that caused 50% of maximal effect) were calculated from the log concentration-effect curves.” for “ACh.”

[7] = system: human bronchi; assay: Effect of NK1, NK2 or NK3 receptor antagonists on peptide-induced contraction of human isolated bronchi; details: phosphoramidon 10^-6 M; for response to a single addition of 10^-6 M hHK-1 in the presence of antagonist / effect of antagonist on contraction by cumulative additions of hHK-1 / effect of antagonist on the response to [Sar^9,Met(O2)^11] SP (10^-6 M), single addition: antagonist 10^-7 M; for response to a single addition of 10^-6 M hHK-1 in the presence of antagonist: % of ACh 3 mM, control 42 ± 4%, not significant, mean ± s.e.m., n = 6-12; for effect of antagonist on contraction by cumulative additions of hHK-1: n = 5-12; for effect of antagonist on the response to [Sar^9,Met(O2)^11] SP (10^-6 M), single addition: n = 6; for effect of the association of SR 140333 and SR 48968 on contraction to a single addition of 10^-6 M hHK-1: both antagonists 10^-7 M together
Source text: as §1, §2

[8] = 10^-7 M, % of ACh 3 mM, mean ± s.e.m.

Compound: endokinin A/B [EKA/B]
-log EC20 ([1]; negative log of concentration causing 20% of maximal contraction with ACh, cumulative additions, mean ± s.e.m., n = 3): 7.2 ± 0.3
potency on guinea-pig isolated bronchi compared with SP and [Sar^9,Met(O2)^11] SP [2]: less potent

Compound: [Sar^9,Met(O2)^11] substance P [[Sar^9,Met(O2)^11] SP]
contraction, first addition of [Sar^9,Met(O2)^11] SP (followed by a second addition of the same peptide) [3, 8]: 33 ± 7%
contraction, initial addition of [Sar^9,Met(O2)^11] SP (followed by hHK-1) [3, 8]: 32 ± 7%
contraction, second addition of [Sar^9,Met(O2)^11] SP after a first addition of [Sar^9,Met(O2)^11] SP ([3]; 10^-7 M, % of ACh 3 mM, mean ± s.e.m., p < 0.01 vs first): 4 ± 1%
response to [Sar^9,Met(O2)^11] SP after a first addition of hHK-1 ([3]; [Sar^9,Met(O2)^11] SP 10^-7 M after hHK-1 3.10^-7 M): abolished
Emax (% of Ach 3 mM) [4]: 76 ± 2 % of Ach 3 mM
pD2 [4]: 7.5 ± 0.1
Emax, cumulative additions in the presence of SR 48968 ([1]; NK2 antagonist SR 48968 10^-7 M, inverted U-shaped curve, % of ACh 3 mM, mean ± s.e.m.): 13 ± 3%
pD2, single additions in the presence of SR 48968 ([1]; NK2 antagonist SR 48968 10^-7 M, non cumulative additions, mean ± s.e.m., hHK-1 n = 5-7, [Sar^9,Met(O2)^11] SP n = 10): 8.0 ± 0.4
maximal contraction, single additions in the presence of SR 48968 ([1]; NK2 antagonist SR 48968 10^-7 M, non cumulative additions, sigmoid curve, % of ACh 3 mM, mean ± s.e.m., hHK-1 n = 5-7, [Sar^9,Met(O2)^11] SP n = 10): 26 ± 7%

Compound: CC(C)Oc1cccc(CC(=O)N2CCC[C@](CC[N+]34CCC(c5ccccc5)(CC3)CC4)(c3ccc(Cl)c(Cl)c3)C2)c1.[Cl-] [SR 140333, (S)1-(2-[3-(3,4-dichlorophenyl)-1-(3-isopropoxyphenylacetyl)piperidin-3-yl]ethyl)-4-phenyl-1-azoniabicyclo [2.2.2]octane chloride]
effect of antagonist on contractions induced by hHK-1, guinea pig main bronchi [5]: abolished
effect on maximal contractions induced by hHK-1, guinea-pig trachea ([6]; SR 140333 10^-9 to 10^-7 M, n = 4-11, suggesting non competitive antagonism): reduced maximal contractions
effect of antagonist on contractions induced by hHK-1, guinea-pig trachea [6]: abolished
response to a single addition of 10^-6 M hHK-1 in the presence of antagonist [7]: 31 ± 5%
effect of antagonist on contraction by cumulative additions of hHK-1 [7]: small but not statistically significant reduction
effect of antagonist on the response to [Sar^9,Met(O2)^11] SP (10^-6 M), single addition [7]: specifically abolished
effect of the association of SR 140333 and SR 48968 on contraction to a single addition of 10^-6 M hHK-1 [7]: abolished the smooth muscle contraction

effect of antagonist on contraction by cumulative additions of hHK-1 [7]: did not alter
Compound: CC(=O)N(C)C1(c2ccccc2)CCN(CCCC2(c3ccc(Cl)c(Cl)c3)CCCN(C(=O)c3ccccc3)C2)CC1 (stereo in doubt) [SR 142801, (S)-(N)-(1-(3-(1-benzoyl-3-(3,4-dichlorophenyl)piperidin-3-yl)propyl)-4-phenylpiperidin-4-yl)-N-methylacetamide]

effect of antagonist on contractions induced by hHK-1, guinea pig main bronchi [5]: altered to a lesser extent
effect of antagonist on contractions induced by hHK-1, guinea-pig trachea [6]: altered to a lesser extent
effect of antagonist on contraction by cumulative additions of hHK-1 [7]: completely abolished
effect of antagonist on the response to [Sar^9,Met(O2)^11] SP (10^-6 M), single addition [7]: unmodified
effect of the association of SR 140333 and SR 48968 on contraction to a single addition of 10^-6 M hHK-1 [7]: abolished the smooth muscle contraction
Compound: CC(=O)NC1(c2ccccc2)CCN(CC[C@H](CN(C)C(=O)c2ccccc2)c2ccc(Cl)c(Cl)c2)CC1 [SR 48968, (S)-N-methyl-N-[4-acetylamino-4-phenylpiperidino-2-(3,4-dichlorophenyl)butyl]benzamide]
response to a single addition of 10^-6 M hHK-1 in the presence of antagonist [7]: 31 ± 4%

Compound: endokinin C (KKAYQLEHTFQGLL; ends and bridges not checked; UniProt Q86UU9 82-95, looked up) [EKC, peptide derived from TAC4, custom synthesized]
contractile effect on guinea-pig trachea [4]: without effect
contractile activity on human isolated bronchi ([1]; cumulative additions, n = 3): devoid of any contractile activity

Compound: endokinin D [EKD]
contractile effect on guinea-pig trachea [4]: without effect
contractile activity on human isolated bronchi ([1]; cumulative additions, n = 3): devoid of any contractile activity

Compound: [β-Ala^8]-NKA (4-10)
Emax (% of Ach 3 mM) [4]: 80 ± 5 % of Ach 3 mM
pD2 [4]: 8.3 ± 0.6

Reference: article PMC2959027, “Expression and function of human hemokinin-1 in human and guinea pig airways” (Respiratory Research, 2010)
